The text below walks through data of patent US20250129095A1, “ANNULATED 2-AMINO-3-CYANO THIOPHENES AND DERIVATIVES FOR THE TREATMENT OF CANCER” (Boehringer Ingelheim Int'l GmbH Corp., priority 2021, published 2025).

One data set has as its system GP2D cells. As to the kind of experiment: GP2D proliferation assay (120 h) (colorectal cancer, G12D). The data set is classed as cell-based. The procedure:
GP2D cells (ATCC No. CRL-5807) are dispensed into white 384-well plates, flat and white bottom (Perkin Elmer, 6007680) at a density of 500 cells per well in 40 μl DMEM (Sigma, D6429)+1× GlutaMAX (Gibco, 35050038)+10% FCS (fetal calf serum). […] Compounds (10 mM stock in DMSO) are added at logarithmic dose series using the HP Digital Dispenser D300 (Tecan), including DMSO controls and normalizing for added DMSO. For the TO time point measurement, untreated cells are analyzed at the time of compound addition. Plates are incubated for 120 h, and cell viability is measured using CellTiter-Glo luminescent cell viability reagent (Promega product code G7570). Viability (stated as percent of control) is defined as relative luminescence units RLU of each well divided by the RLU of cells in DMSO controls.

A short description of another data set: Caco-2 assay. The data set is classed as in vitro ADME. Conditions: human, 10 μM test compound, pH 7.4; for Papp A→B at 90 min, 10 μM: Caco-2, apical to basolateral (a-b) permeability, read-out: Caco PappAB; for efflux ratio at 90 min, 10 μM: Caco-2 efflux ratio PappBA/PappAB, read-out: Caco ER. An excerpt: The assay provides information on the potential of a compound to pass the cell membrane, on the extent of oral absorption as well as on whether the compound is actively transported by uptake and/or efflux transporters. Permeability measurements across polarized, confluent Caco-2 cell monolayers grown on permeable filter supports (Corning, catalog #3391) are used. […] The receiver and donor compartments contain 0.25% bovine serum albumine (BSA) in assay buffer. Passive diffusion and/or active transport of compounds across the monolayer is measured in both apical to basolateral (a-b) and basolateral to apical (b-a) direction. a-b permeability (PappAB) represents drug absorption from the intestine into the blood and b-a permeability (PappBA) drug secretion from the blood back into the intestine via both passive permeability as well as active transport mechanisms mediated by efflux and uptake transporters that are expressed on the Caco-2 cells. After a pre-incubation of 25-30 min at 37° C., at predefined time points (0, 30, 60 and 90 min), samples were taken from the receiver and donor compartment, respectively.
Concentrations of test compounds in samples were measured by HPLC/MS/MS, samples from the donor compartment were diluted 1:50 (v:v) with assay buffer, samples from receiver compartment were measured without dilution.
Apparent permeabilities in a-b (PappAB) and b-a (PappBA) directions are calculated according to the formula:
[formula] • Vrec [mL]: buffer volume in receiver compartment • Cdon [pmol/mL]: concentration of test compound in donor compartment at t=0 • ΔCrec: difference between concentrations of test compound in receiver compartment at start and end of incubation time • Δt: Incubation time • Vrec·ΔCrec/Δt [[…]]: Amount of compound transferred to receiver compartment per time • A [cm^2]: filter surface
Caco-2 efflux ratios (ER) are calculated as the ratio of PappBA/PappAB.
On the technique in general: Caco-2 monolayers are a common model of the intestinal barrier.

The target in another data set is T1, CYP3A4 (Homo sapiens, UniProt P08684).
T1 construct: from tissue; host or cells: human liver microsomes
T1 sequence (P08684 whole entry): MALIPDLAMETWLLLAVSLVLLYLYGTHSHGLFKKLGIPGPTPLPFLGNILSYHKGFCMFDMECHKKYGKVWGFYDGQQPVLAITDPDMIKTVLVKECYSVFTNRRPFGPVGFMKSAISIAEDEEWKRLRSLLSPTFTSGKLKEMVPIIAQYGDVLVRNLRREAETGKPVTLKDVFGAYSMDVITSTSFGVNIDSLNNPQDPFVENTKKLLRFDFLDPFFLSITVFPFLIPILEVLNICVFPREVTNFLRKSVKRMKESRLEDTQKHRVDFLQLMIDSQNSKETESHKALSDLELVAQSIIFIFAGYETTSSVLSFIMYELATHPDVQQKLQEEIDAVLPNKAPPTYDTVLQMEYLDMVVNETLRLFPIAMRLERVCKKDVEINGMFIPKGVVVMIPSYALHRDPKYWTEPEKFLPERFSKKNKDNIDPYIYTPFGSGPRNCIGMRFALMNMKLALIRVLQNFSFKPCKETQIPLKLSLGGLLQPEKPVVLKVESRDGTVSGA
Nature of the data set: Mechanism based inhibition of CYP3A4 assay (MBI 3A4). The data set is classed as in vitro ADME. The note with it: human liver microsomes, 25 uM, hydroxy-midazolam formation 30 min vs 0 min preincubation. The procedure:
The time dependent inhibition towards CYP3A4 is assayed in human liver microsomes (0.02 mg/mL) with midazolam (15 μM) as a substrate. The test compounds and water control (wells w/o test compound) are preincubated in presence of NADPH (1 mM) with human liver microsomes (0.2 mg/mL) at a concentration of 25 uM for 0 min and 30 min. After preincubation, the incubate is diluted 1:10 and the substrate midazolam is added for the main incubation (15 min). The main incubation is quenched with acetonitrile and the formation of hydroxy-midazolam is quantified via LC/MS-MS. The formation of hydroxy-midazolam from the 30 min preincubation relative to the formation from the 0 min preincubation is used as a readout. Values of less than 100% mean that the substrate midazolam is metabolized to a lower extent upon 30 min preincubation compared to 0 min preincubation. In general low effects upon 30 min preincubation are desired (corresponding to values close to 100%/not different to the values determined with water control).

Broadly, the IC50 is the concentration that gives 50% inhibition. Read a high IC50 as weaker potency in that assay. Regarding `C[C@H](Oc1cc(Oc2cncnc2)nc(-c2onc3c2CCC[C@@]32CCCc3sc(N)c(C#N)c32)n1)[C@@H]1CCCN1C` [Example I-3], the midpoint of inhibition in the data set with GP2D cells, the IC50, lay at 0.012 µM. In the data set “Caco-2 assay”, the Papp A→B at 90 min, 10 μM was determined as 180 nm/s and the efflux ratio at 90 min, 10 μM turned out to be 1.3.

For the molecule `COC[C@H](C)Nc1cc(O[C@@H](C)[C@@H]2CCCN2C)nc(-c2onc3c2CCC[C@@]32CCCc3sc(N)c(C#N)c32)n1` [Example I-5], the “MBI 3A4 [%]” value at CYP3A4 was 61%. Besides, in “Caco-2 assay”, the Papp A→B at 90 min, 10 μM was 43 nm/s and the efflux ratio at 90 min, 10 μM worked out at 7.7.

Turning to `C[C@H](Oc1cc(Nc2ccccn2)nc(-c2onc3c2CCC[C@@]32CCCc3sc(N)c(C#N)c32)n1)[C@@H]1CCCN1C` [Example I-6], in “Caco-2 assay”, the efflux ratio at 90 min, 10 μM is 2.5.

As for `C[C@H](Oc1cc(OCC2(N(C)C)COC2)nc(-c2onc3c2CCC[C@@]32CCCc3sc(N)c(C#N)c32)n1)[C@@H]1CCCN1C` [Example I-8], it took 0.011 µM to reach half-maximal inhibition with GP2D cells (IC50). The “MBI 3A4 [%]” value on CYP3A4 was 77%.

`C[C@H](Oc1cc(Oc2cncnc2)nc(-c2noc3c2CCC[C@@]32CCCc3sc(N)c(C#N)c32)n1)[C@@H]1CCCN1C` [II-1] showed an IC50 in the data set with GP2D cells of 0.01 µM. Further, in the data set “Caco-2 assay”, the Papp A→B at 90 min, 10 μM was 170 nm/s and the efflux ratio at 90 min, 10 μM stood at 1.5.

For `C[C@H](Oc1cc(Oc2nccs2)nc(-c2noc3c2CCC[C@@]32CCCc3sc(N)c(C#N)c32)n1)[C@@H]1CCCN1C` [II-2], the “MBI 3A4 [%]” value on CYP3A4 is given as 40%. In addition, the efflux ratio at 90 min, 10 μM in “Caco-2 assay” was 0.5.

As for `C[C@H](Oc1cc(O[C@H]2CCOC2)nc(-c2noc3c2CCC[C@@]32CCCc3sc(N)c(C#N)c32)n1)[C@@H]1CCCN1C` [II-4], the IC50 in the data set on GP2D cells amounted to 0.178 µM. On CYP3A4, the “MBI 3A4 [%]” value came out at 58%. Besides, in the data set “Caco-2 assay”, the Papp A→B at 90 min, 10 μM was 86 nm/s and the efflux ratio at 90 min, 10 μM was found to be 3.7.

For `COCCOc1cc(O[C@@H](C)[C@@H]2CCCN2C)nc(-c2noc3c2CCC[C@@]32CCCc3sc(N)c(C#N)c32)n1` [II-5], the “MBI 3A4 [%]” value on CYP3A4 was determined as 69%. In the data set “Caco-2 assay”, the Papp A→B at 90 min, 10 μM amounted to 140 nm/s and the efflux ratio at 90 min, 10 μM amounted to 1.4.

For `C[C@H](Oc1cc(OCCO)nc(-c2noc3c2CCC[C@@]32CCCc3sc(N)c(C#N)c32)n1)[C@@H]1CCCN1C` [II-6], the “MBI 3A4 [%]” value on CYP3A4 came out at 61%. In addition, in “Caco-2 assay”, the Papp A→B at 90 min, 10 μM amounted to 12 nm/s and the efflux ratio at 90 min, 10 μM was determined as 20.8.

As to `C[C@H](Oc1cc(O[C@@H]2CNC2(C)C)nc(-c2noc3c2CCC[C@@]32CCCc3sc(N)c(C#N)c32)n1)[C@@H]1CCCN1C` [II-9], on CYP3A4, the “MBI 3A4 [%]” value was found to be 72%. In the data set “Caco-2 assay”, the Papp A→B at 90 min, 10 μM stood at 2 nm/s and the efflux ratio at 90 min, 10 μM turned out to be 132.

Consider `C[C@H](Oc1cc(N(C)C)nc(-c2noc3c2CCC[C@@]32CCCc3sc(N)c(C#N)c32)n1)[C@@H]1CCCN1C` [II-10], for which, in the data set “Caco-2 assay”, the Papp A→B at 90 min, 10 μM was found to be 76 nm/s and the efflux ratio at 90 min, 10 μM stood at 3.

Consider `C[C@H](Oc1cc(Nc2ncco2)nc(-c2noc3c2CCC[C@@]32CCCc3sc(N)c(C#N)c32)n1)[C@@H]1CCCN1C` [II-13], for which the “MBI 3A4 [%]” value on CYP3A4 is recorded as 52%. Also, in “Caco-2 assay”, the Papp A→B at 90 min, 10 μM was found to be 52 nm/s and the efflux ratio at 90 min, 10 μM worked out at 3.1.

With `C[C@H](Oc1cc(Nc2cnccn2)nc(-c2noc3c2CCC[C@@]32CCCc3sc(N)c(C#N)c32)n1)[C@@H]1CCCN1C` [II-14], the “MBI 3A4 [%]” value on CYP3A4 is 67%.

For the molecule `C[C@H](Oc1cc(Nc2ccncn2)nc(-c2noc3c2CCC[C@@]32CCCc3sc(N)c(C#N)c32)n1)[C@@H]1CCCN1C` [II-15], the “MBI 3A4 [%]” value at CYP3A4 is reported as 64%. Besides, in the data set “Caco-2 assay”, the Papp A→B at 90 min, 10 μM worked out at 20 nm/s and the efflux ratio at 90 min, 10 μM was 14.5.

Consider `C[C@H](Oc1cc(Nc2ccccn2)nc(-c2noc3c2CCC[C@@]32CCCc3sc(N)c(C#N)c32)n1)[C@@H]1CCCN1C` [II-16], for which the “MBI 3A4 [%]” value on CYP3A4 came to 48%. In “Caco-2 assay”, the efflux ratio at 90 min, 10 μM was 3.1.

In the data set with GP2D cells, `C[C@H](Oc1cc(Nc2ncccn2)nc(-c2noc3c2CCC[C@@]32CCCc3sc(N)c(C#N)c32)n1)[C@@H]1CCCN1C` [II-17] showed an IC50 of 0.363 µM. Also, the “MBI 3A4 [%]” value at CYP3A4 was 75%. Moreover, in the data set “Caco-2 assay”, the Papp A→B at 90 min, 10 μM came to 39 nm/s and the efflux ratio at 90 min, 10 μM was 5.

In the case of `C[C@H](Oc1cc(Nc2cccnn2)nc(-c2noc3c2CCC[C@@]32CCCc3sc(N)c(C#N)c32)n1)[C@@H]1CCCN1C` [II-18], the “MBI 3A4 [%]” value on CYP3A4 was determined as 64%. For the same molecule, in the data set “Caco-2 assay”, the Papp A→B at 90 min, 10 μM came to 14 nm/s and the efflux ratio at 90 min, 10 μM stood at 17.9.

As for `C[C@H](Oc1cc(N(C)CCN(C)C)nc(-c2noc3c2CCC[C@@]32CCCc3sc(N)c(C#N)c32)n1)[C@@H]1CCCN1C` [II-20], in “Caco-2 assay”, the Papp A→B at 90 min, 10 μM came to 8 nm/s and the efflux ratio at 90 min, 10 μM amounted to 38.

As to `C[C@H](Oc1cc(OCC2(N(C)C)CC2)nc(-c2noc3c2CCC[C@@]32CCCc3sc(N)c(C#N)c32)n1)[C@@H]1CCCN1C` [II-21], the IC50 with GP2D cells was determined as 0.008 µM. The “MBI 3A4 [%]” value at CYP3A4 came out at 76%. In “Caco-2 assay”, the efflux ratio at 90 min, 10 μM amounted to 1.4.

As to `C[C@H](Oc1cc(OCC2(N(C)C)COC2)nc(-c2noc3c2CCC[C@@]32CCCc3sc(N)c(C#N)c32)n1)[C@@H]1CCCN1C` [II-22], inhibition with GP2D cells was half-maximal at 0.005 µM (IC50). Moreover, the “MBI 3A4 [%]” value at CYP3A4 amounted to 78%. Also, in “Caco-2 assay”, the Papp A→B at 90 min, 10 μM was found to be 26 nm/s and the efflux ratio at 90 min, 10 μM is 15.5.

In the data set on GP2D cells, `COc1c(OCC2(N(C)C)COC2)nc(-c2noc3c2CCC[C@@]32CCCc3sc(N)c(C#N)c32)nc1O[C@@H](C)[C@@H]1CCCN1C` [II-25] registered an IC50 of 0.017 µM. The “MBI 3A4 [%]” value at CYP3A4 amounted to 69%. In addition, in the data set “Caco-2 assay”, the Papp A→B at 90 min, 10 μM worked out at 25 nm/s and the efflux ratio at 90 min, 10 μM came out at 13.6.

For `C[C@H]1CN(C)CCCN1c1cc(O[C@@H]2CNC2(C)C)nc(-c2noc3c2CCC[C@@]32CCCc3sc(N)c(C#N)c32)n1` [II-28], in the data set on GP2D cells, half-maximal inhibition (IC50) was put at 0.02 µM. For the same molecule, on CYP3A4, the “MBI 3A4 [%]” value was 65%.

For the molecule `C[C@H](Oc1cc(O[C@@H]2CNC[C@@H]2F)nc(-c2noc3c2CCC[C@@]32CCCc3sc(N)c(C#N)c32)n1)[C@@H]1CCCN1C` [II-29], the IC50 in the data set on GP2D cells stood at 0.009 µM. Also, in the data set “Caco-2 assay”, the Papp A→B at 90 min, 10 μM was determined as 9 nm/s and the efflux ratio at 90 min, 10 μM worked out at 25.5.

As to `CO[C@@H]1C[C@@H]([C@H](C)Oc2cc(O[C@@H]3CNC3(C)C)nc(-c3noc4c3CCC[C@@]43CCCc4sc(N)c(C#N)c43)n2)N(C)C1` [II-30], in “Caco-2 assay”, the Papp A→B at 90 min, 10 μM was 2 nm/s and the efflux ratio at 90 min, 10 μM was found to be 125.

In the data set with GP2D cells, `C[C@H](Oc1cc(O[C@@H]2CNC2(C)C)nc(-c2noc3c2CCC[C@@]32CCCc3sc(N)c(C#N)c32)n1)[C@@H]1C[C@@H](F)CN1C` [II-31] yielded an IC50 of 0.001 µM. Further, in “Caco-2 assay”, the Papp A→B at 90 min, 10 μM is 8 nm/s and the efflux ratio at 90 min, 10 μM turned out to be 50.7.
